Assay [1] addresses ANF Rezeptor (Membranpräparation von Rindernebennieren). Description: Binding test: displacement of radiolabelled ANF from its receptor (membrane preparation of bovine adrenal glands). Also noted: species or system Rind. To be noted: inhibition of ¹²⁵I-ANF (18,2 pM) binding, 24 h at 4°C; read-out: IC₅₀. Here is the method:
In einem Bindungstest nach Bürgisser et al. [Biochem. Biophys. Res. Comm. 133, 1201 (1985)] wurde die Verdrängung von radioaktiv-markiertem ANF von dessen Rezeptor durch den ANF-Antagonisten gemessen. Als Rezeptorpräparation wurde eine Membranpräparation von Rindernebennieren verwendet. Zu 100 µl dieser Präparation in 50 mM Tris/HCl, 500 mM MgCl₂, 1 mM EDTA. 0,5% Rinderserumalbumin und 1 mM o-Phenanthrolin, pH 7,6, wurden ¹²⁵I-ANF (20'000 cpm. 18,2 pM) in 145 µl dieses Puffers und der Ligand in 5 µl Dimethylsulfoxid gegeben. Diese Mischung wurde 24 Stunden bei 4°C inkubiert und gebundenes von freiem ANF durch schnelle Filtration über Whatman GF/C Glasfaserfilter abgetrennt. Nach dreimaligem Waschen der Filter mit obigem Puffer (3 x 4 ml) wurden die Filter zerschnitten und deren Radioaktivität im Gamma-Zähler gemessen. Die Inhibition der Bindung wurde quantitativ mit der IC₅₀ erfasst, worunter diejenige Konzentration an entsprechendem Liganden zu verstehen ist, bei der die Bindung von ¹²⁵I-ANF halbmaximal gehemmt wird. Tabelle

The subject of assay [2] is spontanhypertensive Ratten (SHR). Briefly: In vivo blood pressure in conscious SHR under ANF infusion. As to conditions: bolus 1 mg/kg after ANF infusion 2.5 µg/kg/min. How it is done:
(§1) Für die in vivo Versuche wurden 20 Wochen alte spontanhypertensive Ratten (SHR) oder normotensive pathogen-freie (SPF) Ratten verwendet. In wache SHR wurde 2.5 µg/kg/min ANF infundiert, was den Blutdruck um 45 mm Hg senkte. Eine anschliessende Bolusgabe von 1 mg/kg ANF-Antagonist erhöhte den Blutduck wiederum auf den Ausgangswert von 220 mm Hg. Anästhesierten SPF-Ratten ohne zentrale Reflexe ("pithed rats") wurde Angiotensin II (0,15 µg/kg/min) infundiert, um den Blutdruck auf 100-110 mm Hg anzuheben. Dann wurde ein Bolus von 10 µg/kg ANF gegeben. was den Blutdruck um 20 mm Hg senkte. […] Diese Versuche zeigen, dass der Blutdruckanstieg unter dem ANF-Antagonisten nicht auf eine Aktivierung von symphatischen Reflexen, sondern auf die Wirkung eines ANF-Antagonisten zurückzuführen ist.

In assay [3] the test system is SPF-Ratten ohne zentrale Reflexe ("pithed rats"). Description: In vivo blood pressure in anaesthetised pithed SPF rats under angiotensin II infusion. As to conditions: Angiotensin II 0,15 µg/kg/min, 1 mg/kg i.v. after bolus of 10 µg/kg ANF. How it is done: as §1

Where a SMILES comes first, the peptide text is derived from it. Bridges are numbered along the chain shown (N, C = ends).

Consider `CC[C@H](C)[C@@H]1NC(=O)[C@H](Cc2ccccc2)NC(=O)CNC(=O)C[C@@H](C(=O)N[C@H](C(=O)N[C@@H](Cc2ccccc2)C(=O)NCC(=O)N[C@@H](Cc2c[nH]cn2)C(=O)N[C@@H](Cc2ccc(O)cc2)C(=O)N[C@@H](CO)C(=O)NCC(=O)N[C@@H](CC(=O)OC)C(=O)N[C@@H](Cc2ccccc2)C(=O)OC)[C@@H](C)CC)NC(=O)[C@H](CC(N)=O)NC(=O)CNC(=O)[C@H](Cc2c[nH]c3ccccc23)NC(=O)CNC1=O` [Dimethylester] (GFIGWGNDIFGHYSGD(OMe)F-OMe; lactam N-8), for which the IC50 in assay [1] is 2.5 µM.
As to `CC[C@H](C)[C@@H]1NC(=O)[C@H](Cc2ccccc2)NC(=O)CNC(=O)C[C@@H](C(=O)N[C@H](C(=O)N[C@@H](Cc2ccccc2)C(=O)NCC(=O)N[C@@H](Cc2c[nH]cn2)C(=O)N[C@@H](Cc2ccc(O)cc2)C(=O)N[C@@H](CO)C(=O)NCC(=O)N[C@@H](CC(=O)O)C(=O)N[C@@H](Cc2ccccc2)C(=O)O)[C@@H](C)CC)NC(=O)[C@H](CC(N)=O)NC(=O)CNC(=O)[C@H](Cc2c[nH]c3ccccc23)NC(=O)CNC1=O` [ANF-Antagonist] (GFIGWGNDIFGHYSGDF-OH; lactam N-8; C-terminus assumed), in assay [1], the IC50 stood at 0.86 µM. Besides, in assay [2], the “Blutdruck nach Bolusgabe (erhöht auf den Ausgangswert)” value came out at 220 mm Hg. For the same compound, the “Blutdruck nach intravenöser Gabe” value in assay [3] was “erhöhte den Blutdruck wiederum auf den Ausgangswert”.

Source of the values: patent publication EP0415219A1, “ANF-Antagonist” (F. HOFFMANN-LA ROCHE AG, priority 1989, dated 1991).
